IC50 data for twelve compounds are collected here from patent publication EP2518071A1, “Imidazopyridine derivatives as PI3K inhibitors” (Almirall, S.A., priority 2011, dated 2012).

In the experiment the target is T1, PI3Kδ (PI3Kd) (Homo sapiens, UniProt O00329).
T1 construct: purchased Millipore
T1 sequence (O00329 whole entry): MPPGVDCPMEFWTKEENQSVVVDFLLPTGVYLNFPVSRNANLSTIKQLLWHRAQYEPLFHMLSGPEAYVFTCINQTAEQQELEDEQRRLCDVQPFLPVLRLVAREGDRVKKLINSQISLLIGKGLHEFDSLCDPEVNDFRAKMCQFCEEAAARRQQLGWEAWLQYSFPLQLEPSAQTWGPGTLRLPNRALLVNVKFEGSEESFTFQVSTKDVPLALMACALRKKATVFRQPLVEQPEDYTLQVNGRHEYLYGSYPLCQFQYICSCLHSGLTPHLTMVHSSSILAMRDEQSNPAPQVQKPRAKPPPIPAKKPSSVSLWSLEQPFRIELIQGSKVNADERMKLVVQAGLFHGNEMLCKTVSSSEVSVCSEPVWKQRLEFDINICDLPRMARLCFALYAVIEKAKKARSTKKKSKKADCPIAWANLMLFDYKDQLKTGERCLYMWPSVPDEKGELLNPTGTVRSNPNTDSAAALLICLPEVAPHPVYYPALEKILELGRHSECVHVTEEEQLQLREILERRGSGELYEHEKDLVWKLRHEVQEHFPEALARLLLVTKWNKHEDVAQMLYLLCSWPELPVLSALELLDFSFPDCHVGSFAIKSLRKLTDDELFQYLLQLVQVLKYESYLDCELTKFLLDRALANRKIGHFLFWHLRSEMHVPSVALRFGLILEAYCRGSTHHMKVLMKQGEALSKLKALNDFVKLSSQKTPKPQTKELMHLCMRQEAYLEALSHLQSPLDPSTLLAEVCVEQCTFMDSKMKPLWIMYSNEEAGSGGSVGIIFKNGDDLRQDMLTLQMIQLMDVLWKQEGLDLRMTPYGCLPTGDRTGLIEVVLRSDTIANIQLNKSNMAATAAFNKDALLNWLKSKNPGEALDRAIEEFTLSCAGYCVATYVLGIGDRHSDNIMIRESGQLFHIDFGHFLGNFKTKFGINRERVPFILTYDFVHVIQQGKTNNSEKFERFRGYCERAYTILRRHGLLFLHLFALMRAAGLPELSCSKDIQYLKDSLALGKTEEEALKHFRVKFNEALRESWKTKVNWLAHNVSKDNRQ
T1 sequence (P27986 whole entry partner): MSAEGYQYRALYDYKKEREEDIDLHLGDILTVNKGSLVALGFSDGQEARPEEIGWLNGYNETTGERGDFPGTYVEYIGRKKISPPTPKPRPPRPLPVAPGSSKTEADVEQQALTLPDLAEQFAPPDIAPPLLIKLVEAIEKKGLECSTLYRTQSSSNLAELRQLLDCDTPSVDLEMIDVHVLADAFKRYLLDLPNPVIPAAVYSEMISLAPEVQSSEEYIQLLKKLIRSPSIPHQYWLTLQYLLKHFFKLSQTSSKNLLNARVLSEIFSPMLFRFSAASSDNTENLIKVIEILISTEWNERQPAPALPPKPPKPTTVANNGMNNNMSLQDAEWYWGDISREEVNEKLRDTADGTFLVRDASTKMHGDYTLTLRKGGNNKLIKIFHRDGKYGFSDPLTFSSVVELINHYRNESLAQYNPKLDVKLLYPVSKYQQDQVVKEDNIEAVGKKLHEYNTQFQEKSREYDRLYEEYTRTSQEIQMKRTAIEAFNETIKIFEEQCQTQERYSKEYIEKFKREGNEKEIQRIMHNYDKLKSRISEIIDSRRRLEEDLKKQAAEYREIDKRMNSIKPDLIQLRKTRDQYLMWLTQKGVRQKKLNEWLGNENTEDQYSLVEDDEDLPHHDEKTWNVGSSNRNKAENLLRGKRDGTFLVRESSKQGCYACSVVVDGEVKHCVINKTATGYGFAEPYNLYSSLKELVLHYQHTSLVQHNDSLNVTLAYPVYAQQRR
The experiment can be described thus: PI3K HTRF enzymatic inhibition assay (cell-free, Millipore kit), PI3Kd isoform. The conditions noted are these: recombinant PI3Kd 0.60 nM, PIP2 2 µM, ATP 20 µM, incubation 8 minutes. Type of experiment: biochemical. Here is the method: Compounds were screened for their ability to inhibit PI3Kα (PI3Ka), PI3Kβ (PI3Kb), PI3Kδ (PI3Kd) and PI3Kγ (PI3Kg) using a cell-free based P13K HTRF™ assay (Millipore, ref. #33-017) All reagents to perform the reactions were prepared according to the manufacturer protocol. All PI3K enzymes were recombinant and were purchased at Millipore.
All four assays were performed according to the following procedure: • 1) Dilution curves of compounds were done in 100% DMSO and dispensed in a reservoir plate, typically from column 2 to 11. Column 1 and 12 were used for the negative controls (100% inhibition using a reference PI3K inhibitor for the four isoforms) and the positive controls (0% inhibition using dimethyl sulfoxide (DMSO) only). • 2) Mix of Phosphoinositide 3-kinase (PI3K) + Phosphatidylinositol 4,5-bisphosphate (PIP2) was diluted in buffer (supplied with the kit) and plated in a medium binding black 96-well plate (Greiner ref. #675076) PI3Ka was diluted at 0.25 nM with PIP2 at 2 µM; PI3Kb was diluted at 0.50 nM with PIP2 at 5 µM; PI3Kd was diluted at 0.60 nM with PIP2 at 2 µM and PI3Kg was diluted at 0.30 nM with PIP2 at 10 µM. These concentrations were final in the assay. • 3) A reservoir plate containing Adenosine TriPhosphate (ATP) diluted in the Millipore kit buffer was prepared for each isoform. The final concentration of ATP in the assay was 10 µM, 15 µM, 20 µM and 10 µM for PI3Ka, PI3Kb, PI3Kd and PI3Kg respectively. • 4) Reactions were started by addition to the PI3K+PIP2 plates of the ATP and compounds simultaneously. Incubation was done for 8 minutes (for all four isoforms) then the reaction was stopped by addition of the Stop solution. The Detection solution was added. These solutions were prepared previously according to the kit specifications. The plates were then incubated overnight at RT before reading the signal in an Envision (PerkinElmer), with excitation at 340 nm and emissions at 620 and 665 nm. • 5) Data obtained from the compound curves were normalized in respect to the negative and positive controls, and then fitted by a 4-parameter log curve in ActivityBase (IDBS) in order to determine their potency.
By IC50 is commonly meant the midpoint of a concentration-inhibition curve. As for `Cc1ccc2nc([C@H](C)Nc3ncnc(N)c3C#N)n(-c3ccccc3)c2n1` [Example 25, (S)-4-Amino-6-(1-(5-methyl-3-phenyl-3H-imidazo[4,5-b]pyridin-2-yl)ethylamino)pyrimidine-5-carbonitrile], the IC50 was 52.1 nM. The value for `C[C@H](Nc1ncnc2[nH]cnc12)c1nc2ncccc2n1-c1ccccc1` [Example 43, (S)-N-(1-(1-Phenyl-1H-imidazo[4,5-b]pyridin-2-yl)ethyl)-9H-purin-6-amine] was 1800 nM; that for `C[C@H](Nc1ncnc2[nH]cnc12)c1nc2cccnc2n1-c1cc(F)cc(F)c1` [Example 12, (S)-N-(1-(3-(3,5-Difluorophenyl)-3H-imidazo[4,5-b]pyridin-2-yl)ethyl)-9H-purin-6-amine] was 188 nM; that for `COc1ccc2nc([C@H](C)Nc3ncnc(N)c3C#N)n(-c3ccccc3)c2n1` [Example 21, (S)-4-Amino-6-(1-(5-methoxy-3-phenyl-3H-imidazo[4,5-b]pyridin-2-yl)ethylamino)pyrimidine-5-carbonitrile] was 22.2 nM. Take `C[C@H](Nc1ncnc(N)c1C#N)c1nc2cccnc2n1-c1ccccc1` [Example 19, (S)-4-Amino-6-(1-(3-phenyl-3H-imidazo[4,5-b]pyridin-2-yl)ethylamino)pyrimidine-5-carbonitrile]: the IC50 stood at 132 nM.

For the compound `C[C@H](Nc1nc(N)nc2[nH]cnc12)c1nc2cccnc2n1-c1ccccc1` [Example 9, (S)-N6-(1-(3-Phenyl-3H-imidazo[4,5-b]pyridin-2-yl)ethyl)-9H-purine-2,6-diamine], the 50% inhibitory concentration (IC50) was determined as 85.9 nM. `COc1ccc2nc([C@H](C)Nc3ncnc4[nH]cnc34)n(-c3ccccc3)c2n1` [Example 10, (S)-N-(1-(5-Methoxy-3-phenyl-3H-imidazo[4,5-b]pyridin-2-yl)ethyl)-9H-purin-6-amine]: the half-maximal inhibitory concentration (IC50) came to 31.6 nM. On to `C[C@H](Nc1ncnc2[nH]cnc12)c1nc2cc(F)cnc2n1-c1ccccc1` [Example 37, N-[(1S)-1-(6-Fluoro-3-phenyl-3H-imidazo[4,5-b]pyridin-2-yl)ethyl]-9H-purin-6-amine], for which the half-inhibitory concentration (IC50) stood at 165 nM. The value for `C[C@H](Nc1ncnc2[nH]cnc12)c1nc2cccnc2n1-c1ccccc1Cl` [Example 39, N-{(1S)-1-[3-(2-Chlorophenyl)-3H-imidazo[4,5-b]pyridin-2-yl]ethyl}-9H-purin-6-amine] was 215 nM; that for `CC[C@H](Nc1ncnc2[nH]cnc12)c1nc2ccc(OC)nc2n1-c1ccccc1` [Example 14, (S)-N-(1-(5-Methoxy-3-phenyl-3H-imidazo[4,5-b]pyridin-2-yl)propyl)-9H-purin-6-amine] was 14.4 nM; that for `Cc1ccc2nc([C@H](C)Nc3ccnc4ccnn34)n(-c3ccccc3)c2n1` [Example 26, (S)-N-(1-(5-Methyl-3-phenyl-3H-imidazo[4,5-b]pyridin-2-yl)ethyl)pyrazolo[1,5-a]pyrimidin-7-amine] was 693 nM.

For `COc1ccc2nc([C@H](C)Nc3ncnc4[nH]cnc34)n(-c3cc(F)cc(F)c3)c2n1` [Example 15, (S)-N-(1-(3-(3,5-Difluorophenyl)-5-methoxy-3H-imidazo[4,5-b]pyridin-2-yl)ethyl)-9H-purin-6-amine], the 50% inhibitory concentration (IC50) was 10.9 nM.
